Data on seven compounds can be found in paper PMC6200808 (2018).

The test system of assay [1] is NEO1A (RNA, aptamer) GGACUGGGCGAGAAGUUUAGUCC
Put plainly: ITC. Particulars: for Kd: buffer IC (approximates intracellular salt; composition not shown), buffer IC, 25 °C.

Assay [2] deals with 16S (16S rRNA Decoding region) (RNA, rRNA) GGCGUCACACCUUCGGGUGAAGUCGCC
Particulars: column head extracted as (M), μ lost.

The subject of assay [3] is TSM (Thymidylate Synthase mRNA region) (RNA, mRNA element) CCCCCCCGCCGCGCCAUGCCUGUGGCCGGUCGG
Particulars: column head extracted as (M), μ lost.

Assay [4] has as its system NEO4A (RNA, aptamer) CUUUGCGAUGUCCUUUAAUGGUCCGCGAGG
The assay is described as follows: ITC. Conditions: buffer IC (approximates intracellular salt; composition not shown), 25 °C.

Assay [5] relates to TOB3A (RNA, aptamer) GGCACGAGGUUUAGCUACACUCGUGCC
Conditions: column head extracted as (M), μ lost.

Turning to `CN(C)[C@@H]1C(=O)C(C(N)=O)=C(O)[C@@]2(O)C(=O)C3=C(O)c4c(O)cccc4[C@@](C)(O)[C@H]3C[C@@H]12`, the binding entry in assay [1] (20 μM aptamer in cell, tetracycline concentration not stated) was “no”.
For orientation: Kd means the constant that tells how readily two partners part at equilibrium. As for `CN[C@@H]1[C@@H](O)[C@@H](O[C@@H]2[C@@H](O)[C@H](O[C@H]3O[C@H]([C@@H](C)O)[C@@H](O)[C@H](O)[C@H]3N)[C@@H](N)C[C@H]2N)OC[C@]1(C)O`, the Kd in assay [1] (N = 5) stood at 26 ± 9.3 µM.
Consider `NC[C@@H]1O[C@H](O[C@H]2[C@@H](O)[C@H](O[C@@H]3[C@@H](O)[C@H](N)C[C@H](N)[C@H]3O[C@H]3O[C@H](CN)[C@@H](O)[C@H](O)[C@H]3N)O[C@@H]2CO)[C@H](N)[C@@H](O)[C@@H]1O`, for which the Kd in assay [1] (N = 8) was found to be 0.29 ± 0.054 µM; in assay [4] (N = 3), 0.099 ± 0.036 µM. The “Dissociation Constants” value stood at 1.93e-06 ± 5.8e-07 M in assay [2], 8.8e-07 ± 1.1e-07 M in assay [3] and 2.2e-06 ± 5e-07 M in assay [5].
For `NC[C@@H]1O[C@H](O[C@H]2[C@@H](O)[C@H](O[C@@H]3[C@@H](O)[C@H](N)C[C@H](N)[C@H]3O[C@H]3O[C@H](CO)[C@@H](O)[C@H](O)[C@H]3N)O[C@@H]2CO)[C@H](N)[C@@H](O)[C@@H]1O`, the dissociation constant Kd in assay [1] (N = 5) stood at 1.4 ± 0.19 µM. In addition, the “Dissociation Constants” value in assay [2] stood at 5.31e-06 ± 1.85e-06 M; in assay [3], 6.29e-06 ± 3.49e-06 M; in assay [5] it was 1.72e-05 ± 1.96e-06 M.
Turning to `NC[C@H]1O[C@H](O[C@H]2[C@H](O)[C@@H](O[C@H]3O[C@H](CO)[C@@H](O)[C@H](N)[C@H]3O)[C@H](N)C[C@@H]2N)[C@H](N)C[C@@H]1O`, in assay [1] (N = 3), the Kd came out at 4.8 ± 0.95 µM. The figures for the “Dissociation Constants” value in assay [2], in assay [3] and in assay [5] were 1.03e-05 ± 3.87e-06 M, 5.75e-06 ± 1.87e-06 M and 2.4e-07 ± 1e-07 M, respectively.
Turning to `NC[C@H]1O[C@H](O[C@H]2[C@H](O)[C@@H](O[C@H]3O[C@H](CO)[C@@H](O)[C@H](N)[C@H]3O)[C@H](N)C[C@@H]2N)[C@H](N)[C@@H](O)[C@@H]1O`, the Kd in assay [1] (N = 5) came to 0.75 ± 0.26 µM. Also, the “Dissociation Constants” value in assay [2] is 8.9e-06 ± 3.54e-06 M; in assay [3], 6.5e-06 ± 3.2e-06 M; in assay [5], 2.43e-06 ± 1.37e-06 M.
Turning to `NC[C@H]1O[C@H](O[C@H]2[C@H](O)[C@@H](O[C@H]3O[C@H](CO)[C@@H](O)[C@H](N)[C@H]3O)[C@H](N)C[C@@H]2N)[C@H](O)[C@@H](O)[C@@H]1O`, the equilibrium dissociation constant (Kd) in assay [1] (N = 3) amounted to 43 ± 3.6 µM; in assay [4] (N = 2), 10.7 ± 4.2 µM. The “Dissociation Constants” value in assay [2] stood at 3.71e-05 ± 4.38e-06 M; in assay [3] it was 1.03e-05 ± 6.65e-06 M; in assay [5] it was 7.38e-05 ± 3.96e-06 M.
